In patent publication US20100286105A1, “METHODS OF TREATING HYPERANDROGENISM AND CONDITIONS ASSOCIATED THEREWITH BY ADMINISTERING A FATTY ACID ESTER OF AN ESTROGEN OR AN ESTROGEN DERIVATIVE” (priority 2006, published 2010):

Key:
Assay type in all cases: in vivo, human
[1] = test system: humans; test: Part 2: body weight and food consumption (visual analogue scale questionnaires)
Experimental: (§1) For the second part of the study, […] subjects were divided into […]. Each group was dosed with a single daily dose of 10, 30, 100, or 150 mg oleoyl-estrone for a seven day period. Each individual in the group of 4 was randomized to oleoyl-estrone or placebo.
(§2) Subjects under went a physical examination to establish height, weight, BMI and baseline signs and symptoms. Electrocardiograms and vital signs were taken. Blood for evaluation of hematology, coagulation and clinical chemistry and urine for urinalysis were obtained for each subject. Samples were also taken for hormone analysis, including estrone, estradiol and testosterone. Food-intake and motivation-to-eat using visual analogue scale questionnaires were analyzed.
(§3) Males and post-menopausal females were recruited in both parts of the study. The trial protocol provided that patients should maintain a normal diet and level of activity, but required that patients abstain from consuming alcohol. At baseline, in the placebo group me mean patient weight was 100.5±4.9 kg and BMI 34.4±3.5 and in the oleoyl-estrone group the weight was 100.5±17.8 kg and the average BMI was 34±4.2. The results discussed below are from the second part of the study.

[2] = test system: humans; test: Part 2: hormone levels (estrone, estradiol, testosterone, LH, leptin, CRP); conditions: 7 days daily oral dosing
Experimental: as §1, §2, §3

[3] = test system: humans; test: Part 1: single oral dose safety and tolerability study of oleoyl-estrone in humans; conditions: one-time single oral dose
Experimental: (§4) A two-part study was conducted to evaluate the safety, tolerability, and pharmacokinetic (PK) profiles of single and multiple doses of oleoyl-estrone in humans.
For the first part of the study, thirty-six subjects where divided into groups of six. Each group was dosed with a single dose of 1, 3, 10, 30, 100, or 150 mg of oleoyl-estrone. Each individual in the group of 6 was randomized to oleoyl-estrone or placebo in a ratio of 2:1 where for every two individuals given oleoyl-estrone one is given a placebo.
as §2, with “testosterone.” for “testosterone. Food-intake and motivation-to-eat using visual analogue scale questionnaires were analyzed.”

[4] = test system: humans; test: Part 2: seven-day daily oral dose safety and tolerability study in humans
Experimental: as §4, §1, §2, §3

[5] = test system: humans; test: Part 2: hematology and clinical chemistry (white blood cells, lipids, glucose)
Experimental: as §1, §2, §3

[6] = Part 2: pharmacokinetics, plasma concentration of oleoyl-estrone; conditions: for Cmax: 100 mg, 100 mg group (highest)
Experimental: as §1, §2, §3

[7] = oleoyl-estrone treated group, 7 days daily oral dosing

**Q.** What does the source list for `CCCCCCCC/C=C\CCCCCCCC(=O)Oc1ccc2c(c1)CC[C@@H]1[C@@H]2CC[C@]2(C)C(=O)CC[C@@H]12` [oleoyl-estrone, [3(Z)]-3-[(1-oxo-9-octadecenyl)oxy]-estra-1,3,5(10)-trien-17-one]?
**A.** dose dependence of VAS scores and loss of weight ([1]; 10-150 mg daily for 7 days): more or less dose-dependent, with maximal effects in the 30 mg and 100 mg groups; feelings of hunger, satiety and prospective food consumption (VAS) ([1]; 7 days daily oral dosing): consistently demonstrated reductions; weight loss compared to placebo ([1]; Day 28): greater and maintained; effects on LH [2]: less clear-cut; mean estradiol levels [2]: elevated; mean estrone levels [2]: elevated; mean testosterone levels [2]: suppressed in a reversible and dose dependent manner; CRP ([2]; to Day 15): increased in a dose-dependent manner, returning to baseline by Day 15; leptin ([2]; to Day 15): increased in a dose-dependent manner, returning to baseline by Day 15; safety and tolerability ([3]; 1 to 150 mg): safe, well tolerated at oral doses up to 150 mg; serious adverse events ([3]; up to 150 mg): no serious adverse events were noted; changes in physical examinations, vital signs, ECGs, coagulation or liver function tests ([4]; 7 days daily oral dosing): no clinically significant changes; post-menopausal bleeding ([4]; oleoyl-estrone study volunteers, similar episode 6 months prior to dosing): one had post-menopausal bleeding; adverse effect: back pain (n affected/n treated) [4, 7]: 4/17; adverse effect: diarrhea (n affected/n treated) [4, 7]: 3/17; adverse effect: headache (n affected/n treated) [4, 7]: 3/17; safety and tolerability ([4]; single daily oral dose 10-150 mg for seven days, humans): safe, well tolerated at oral doses up to 150 mg; serious adverse events ([4]; single daily oral dose up to 150 mg for seven days, humans): no serious adverse events were noted; mean HDL cholesterol ([5]; 7 days daily oral dosing): increased; mean LDL cholesterol ([5]; 7 days daily oral dosing): decreased; HDL:LDL cholesterol ratio ([5]; 7 days daily oral dosing, even lower doses): increase in the HDL:LDL cholesterol ratio even at the lower doses; mean glucose concentration ([5]; 7 days daily oral dosing, up to Day 15): fell in a reversible and dose dependent manner and was still low at Day 15; total mean cholesterol ([5]; Day 7, 100-150 mg): decrease at Day 7 with 100-150 mg; white blood cell count ([5]; Day 7 and Day 15): increase in white blood cell count was seen in Day 7 but returned to baseline by Day 15; total mean TAGs ([5]; all doses, all days): dose-dependent increase at all doses and on all days; plasma concentration of oleoyl-estrone versus administered dose level ([6]; 10-150 mg daily oral, assay of limited sensitivity): did not increase with the administered dose level; accumulation in plasma ([6]; Day 7 relative to Day 1, daily oral dosing for 7 consecutive days): no clear accumulation in plasma; Cmax ([6]; both sexes, human, plasma, oral, Day 1): 2.4 ng/mL; Cmax ([6]; both sexes, human, plasma, oral, Day 7): 3.2 ng/mL; concentration at 1 day ([6]; both sexes, human, plasma, oral, Day 1, across dose groups, read-out: oleoyl-estrone plasma levels): 0.3 to 2.4 ng/mL; concentration at 7 day ([6]; both sexes, human, plasma, oral, Day 7, across dose groups, read-out: oleoyl-estrone plasma levels): 0.3 to 3 ng/mL; sex differences in plasma concentration-time profiles ([6]; males and post-menopausal females): no clear differences between the sexes
